Data reported in PubChem BioAssay (NCI).
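Following 48 hours of exposure in 96-well plates, responses at five concentrations were used to interpolate endpoints linearly. The concentration for full growth arrest is given as TGI.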

Columns and labels:
Assay in all cases: NCI anticancer screen, dose series, 48 h
HOP-92 NSCLC = system: HOP-92 NSCLC
UACC-62 melanoma = system: UACC-62 melanoma
CCRF-CEM leukemia = system: CCRF-CEM leukemia
KM12 colon = system: KM12 colon
ACHN renal = system: ACHN renal
A549 NSCLC = system: A549 NSCLC
UACC-257 melanoma = system: UACC-257 melanoma
SW-620 colon = system: SW-620 colon
SN12C renal = system: SN12C renal
NCI-H460 lung = system: NCI-H460 lung
SF-539 CNS = system: SF-539 CNS
OVCAR-4 ovarian = system: OVCAR-4 ovarian
RPMI-8226 leukemia = system: RPMI-8226 leukemia
SNB-75 CNS = system: SNB-75 CNS
OVCAR-8 ovarian = system: OVCAR-8 ovarian
U251 CNS = system: U251 CNS
SF-295 CNS = system: SF-295 CNS
SNB-78 CNS = system: SNB-78 CNS
HOP-62 NSCLC = system: HOP-62 NSCLC
HOP-18 NSCLC = system: HOP-18 NSCLC
NCI-H23 lung = system: NCI-H23 lung
RXF 393 renal = system: RXF 393 renal
XF 498 CNS = system: XF 498 CNS
OVCAR-3 ovarian = system: OVCAR-3 ovarian
MOLT-4 leukemia = system: MOLT-4 leukemia
NCI-H226 lung = system: NCI-H226 lung
SK-MEL-28 melanoma = system: SK-MEL-28 melanoma
UO-31 renal = system: UO-31 renal
DMS 114 small cell lung = system: DMS 114 small cell lung
SK-MEL-2 melanoma = system: SK-MEL-2 melanoma
IGROV1 ovarian = system: IGROV1 ovarian
KM20L2 colon = system: KM20L2 colon
OVCAR-5 ovarian = system: OVCAR-5 ovarian
HCT-15 colon = system: HCT-15 colon
LXFL 529 NSCLC = system: LXFL 529 NSCLC
SK-OV-3 ovarian = system: SK-OV-3 ovarian
HCC-2998 colon = system: HCC-2998 colon
EKVX NSCLC = system: EKVX NSCLC
COLO 205 colon = system: COLO 205 colon
DMS 273 small cell lung = system: DMS 273 small cell lung
HL-60(TB) leukemia = system: HL-60(TB) leukemia
SK-MEL-5 melanoma = system: SK-MEL-5 melanoma
K-562 leukemia = system: K-562 leukemia
SR leukemia = system: SR leukemia
M14 melanoma = system: M14 melanoma
DLD-1 colon = system: DLD-1 colon
CAKI-1 renal = system: CAKI-1 renal
786-0 renal = system: 786-0 renal
TK-10 renal = system: TK-10 renal
SF-268 CNS = system: SF-268 CNS
HT29 colon = system: HT29 colon
LOX IMVI melanoma = system: LOX IMVI melanoma
SNB-19 CNS = system: SNB-19 CNS
M19-MEL melanoma = system: M19-MEL melanoma
HCT-116 colon = system: HCT-116 colon
MALME-3M melanoma = system: MALME-3M melanoma
NCI-H522 lung = system: NCI-H522 lung

Work on `FC(F)(F)C1(Cl)C(Cl)(c2ccccc2)C1(Cl)c1ccccc1` (stereo unspecified) yielded a TGI (HOP-92 NSCLC) of 24.8 µM, a TGI (UACC-62 melanoma) of 29.7 µM and a TGI (CCRF-CEM leukemia) of 55 µM. The TGI (KM12 colon) was 29 µM, the TGI (ACHN renal) was 29.5 µM and the TGI (A549 NSCLC) was 28 µM. It also gave a TGI (UACC-257 melanoma) of 28.1 µM, a TGI (SW-620 colon) of 29.1 µM and a TGI (SN12C renal) of 28.6 µM. The TGI (NCI-H460 lung) was 30.5 µM, the TGI (SF-539 CNS) was 30.4 µM and the TGI (OVCAR-4 ovarian) was 27.3 µM. It also gave a TGI (RPMI-8226 leukemia) greater than 100 µM, a TGI (SNB-75 CNS) of 29.9 µM and a TGI (OVCAR-8 ovarian) of 32.2 µM. It also gave a TGI (U251 CNS) of 28.3 µM, a TGI (SF-295 CNS) of 29.4 µM and a TGI (SNB-78 CNS) of 33.2 µM. For the same compound, the TGI (HOP-62 NSCLC) was 30 µM, the TGI (HOP-18 NSCLC) was 23.1 µM and the TGI (NCI-H23 lung) was 27.5 µM. The TGI (RXF 393 renal) was 27.7 µM, the TGI (XF 498 CNS) was 29.3 µM and the TGI (OVCAR-3 ovarian) was 28.1 µM. For the same compound, the TGI (MOLT-4 leukemia) was 35.4 µM, the TGI (NCI-H226 lung) was 27.4 µM and the TGI (SK-MEL-28 melanoma) was 28.2 µM. The TGI (UO-31 renal) was 28.1 µM, the TGI (DMS 114 small cell lung) was 29.2 µM and the TGI (SK-MEL-2 melanoma) was 29.1 µM. It also gave a TGI (IGROV1 ovarian) of 26 µM, a TGI (KM20L2 colon) of 26.9 µM and a TGI (OVCAR-5 ovarian) of 30 µM. For the same compound, the TGI (HCT-15 colon) was 26.8 µM, the TGI (LXFL 529 NSCLC) was 29.9 µM and the TGI (SK-OV-3 ovarian) was 54.7 µM. It also gave a TGI (HCC-2998 colon) of 31.1 µM, a TGI (EKVX NSCLC) of 30.1 µM and a TGI (COLO 205 colon) of 33.4 µM. It also gave a TGI (DMS 273 small cell lung) of 28.2 µM, a TGI (HL-60(TB) leukemia) greater than 100 µM and a TGI (SK-MEL-5 melanoma) of 26.9 µM. For the same compound, the TGI (K-562 leukemia) was greater than 100 µM, the TGI (SR leukemia) was 25.8 µM and the TGI (M14 melanoma) was 30.2 µM. It also gave a TGI (DLD-1 colon) of 29.1 µM, a TGI (CAKI-1 renal) of 25.6 µM and a TGI (786-0 renal) of 29.5 µM. For the same compound, the TGI (TK-10 renal) was 32.8 µM, the TGI (SF-268 CNS) was 31.7 µM and the TGI (HT29 colon) was 28.2 µM. It also gave a TGI (LOX IMVI melanoma) of 26.8 µM, a TGI (SNB-19 CNS) of 32.5 µM and a TGI (M19-MEL melanoma) of 29 µM. For the same compound, the TGI (HCT-116 colon) was 24.8 µM.

`Cn1cc(NC(=O)[C@H]2CCC(N)=N2)cc1C(=O)NCCC(=N)N` gave a TGI (HOP-92 NSCLC) greater than 100 µM, a TGI (UACC-62 melanoma) greater than 100 µM and a TGI (CCRF-CEM leukemia) greater than 100 µM. For the same compound, the TGI (KM12 colon) was greater than 100 µM, the TGI (ACHN renal) was greater than 100 µM and the TGI (A549 NSCLC) was greater than 100 µM. It also gave a TGI (UACC-257 melanoma) greater than 100 µM, a TGI (SW-620 colon) greater than 100 µM and a TGI (SN12C renal) greater than 100 µM. The TGI (NCI-H460 lung) was greater than 100 µM, the TGI (SF-539 CNS) was greater than 100 µM and the TGI (RPMI-8226 leukemia) was greater than 100 µM. It also gave a TGI (SNB-75 CNS) greater than 100 µM, a TGI (OVCAR-8 ovarian) greater than 100 µM and a TGI (U251 CNS) greater than 100 µM. For the same compound, the TGI (SF-295 CNS) was greater than 100 µM, the TGI (SNB-78 CNS) was greater than 100 µM and the TGI (HOP-62 NSCLC) was greater than 100 µM. The TGI (HOP-18 NSCLC) was greater than 100 µM, the TGI (NCI-H23 lung) was greater than 100 µM and the TGI (RXF 393 renal) was greater than 100 µM. The TGI (XF 498 CNS) was greater than 100 µM, the TGI (OVCAR-3 ovarian) was greater than 100 µM and the TGI (MOLT-4 leukemia) was greater than 100 µM. It also gave a TGI (NCI-H226 lung) greater than 100 µM, a TGI (SK-MEL-28 melanoma) greater than 100 µM and a TGI (UO-31 renal) greater than 100 µM. It also gave a TGI (DMS 114 small cell lung) greater than 100 µM, a TGI (SK-MEL-2 melanoma) greater than 100 µM and a TGI (IGROV1 ovarian) greater than 100 µM. The TGI (KM20L2 colon) was greater than 100 µM, the TGI (MALME-3M melanoma) was greater than 100 µM and the TGI (LXFL 529 NSCLC) was greater than 100 µM. It also gave a TGI (SK-OV-3 ovarian) greater than 100 µM, a TGI (HCC-2998 colon) greater than 100 µM and a TGI (EKVX NSCLC) greater than 100 µM. For the same compound, the TGI (COLO 205 colon) was greater than 100 µM, the TGI (DMS 273 small cell lung) was greater than 100 µM and the TGI (HL-60(TB) leukemia) was greater than 100 µM. It also gave a TGI (K-562 leukemia) greater than 100 µM, a TGI (SR leukemia) greater than 100 µM and a TGI (M14 melanoma) greater than 100 µM. The TGI (DLD-1 colon) was greater than 100 µM, the TGI (NCI-H522 lung) was greater than 100 µM and the TGI (786-0 renal) was greater than 100 µM. The TGI (TK-10 renal) was greater than 100 µM, the TGI (SF-268 CNS) was greater than 100 µM and the TGI (HT29 colon) was greater than 100 µM. It also gave a TGI (LOX IMVI melanoma) greater than 100 µM, a TGI (SNB-19 CNS) greater than 100 µM and a TGI (HCT-116 colon) greater than 100 µM.
